Patent publication US20090137664A1, “SAURURUS CERNUUS COMPOUNDS THAT INHIBIT CELLULAR RESPONSES TO HYPOXIA” (priority 2003, published 2009)

Assays:
Format in all cases: cell-based
SF-295 = assay: NCI in vitro cell line screen (SRB), CNS Cancer SF-295
Procedure: (§1) For exemplary purposes, an embodiment of the present invention was tested for activity with respect to certain cancer cell lines. The following Tables show results from in vitro 60-cell line antitumor testing from the US National Cancer Institute Developmental Therapeutics Program (NCI-DTP) on compound 2. The testing was in connection with the NCI's In Vitro Cell Line Screening Project (IVCLSP). Detailed information regarding the experiments and their interpretation is available from the NCI.

HCT-15 = assay: NCI in vitro cell line screen (SRB), Colon Cancer HCT-15
Procedure: as §1

OVCAR-5 = assay: NCI in vitro cell line screen (SRB), Ovarian Cancer OVCAR-5
Procedure: as §1

SW-620 = assay: NCI in vitro cell line screen (SRB), Colon Cancer SW-620
Procedure: as §1

NCI-H522 = assay: NCI in vitro cell line screen (SRB), Non-Small Cell Lung Cancer NCI-H522
Procedure: as §1

[1] = Homo sapiens, read-out: LC50 (the source's name)

`COc1ccc([C@@H](O)[C@@H](C)Oc2ccc([C@H]3O[C@H](c4ccc(O[C@H](C)[C@H](O)c5ccc6c(c5)OCO6)c(OC)c4)[C@H](C)[C@H]3C)cc2OC)cc1OC` [Compound 2, manassantin B] gave a TGI (SF-295) of 7.46E−5 Molar, a GI50 (SF-295; Homo sapiens) of under 0.01 µM and a CC50 (SF-295; [1]) of over 100 µM. The “Mean Optical Densities” value (SF-295; Log10 Concentration −4.0 Molar) was 0.523, the “Percent Growth” value (SF-295; Log10 Concentration −4.0 Molar) was −2% and the “Mean Optical Densities” value (SF-295; Log10 Concentration −5.0 Molar) was 0.621. The “Percent Growth” value (SF-295; Log10 Concentration −5.0 Molar) was 11%, the “Mean Optical Densities” value (SF-295; Log10 Concentration −6.0 Molar) was 0.851 and the “Percent Growth” value (SF-295; Log10 Concentration −6.0 Molar) was 39%. The “Mean Optical Densities” value (SF-295; Log10 Concentration −7.0 Molar) was 0.811, the “Percent Growth” value (SF-295; Log10 Concentration −7.0 Molar) was 34% and the “Mean Optical Densities” value (SF-295; Log10 Concentration −8.0 Molar) was 0.751. The “Percent Growth” value (SF-295; Log10 Concentration −8.0 Molar) was 27%, the TGI (HCT-15) was over 1.00E−4 Molar and the GI50 (HCT-15; Homo sapiens) was 4.91 µM. For the same compound, the CC50 (HCT-15; [1]) was over 100 µM, the “Mean Optical Densities” value (HCT-15; Log10 Concentration −4.0 Molar) was 0.319 and the “Percent Growth” value (HCT-15; Log10 Concentration −4.0 Molar) was 26%. For the same compound, the “Mean Optical Densities” value (HCT-15; Log10 Concentration −5.0 Molar) was 0.400, the “Percent Growth” value (HCT-15; Log10 Concentration −5.0 Molar) was 38% and the “Mean Optical Densities” value (HCT-15; Log10 Concentration −6.0 Molar) was 0.660. The “Percent Growth” value (HCT-15; Log10 Concentration −6.0 Molar) was 77%, the “Mean Optical Densities” value (HCT-15; Log10 Concentration −7.0 Molar) was 0.691 and the “Percent Growth” value (HCT-15; Log10 Concentration −7.0 Molar) was 82%. For the same compound, the “Mean Optical Densities” value (HCT-15; Log10 Concentration −8.0 Molar) was 0.683, the “Percent Growth” value (HCT-15; Log10 Concentration −8.0 Molar) was 80% and the TGI (OVCAR-5) was over 1.00E−4 Molar. The CC50 (OVCAR-5; [1]) was over 100 µM, the “Mean Optical Densities” value (OVCAR-5; Log10 Concentration −4.0 Molar) was 0.713 and the “Percent Growth” value (OVCAR-5; Log10 Concentration −4.0 Molar) was 11%. The “Mean Optical Densities” value (OVCAR-5; Log10 Concentration −5.0 Molar) was 0.752, the “Percent Growth” value (OVCAR-5; Log10 Concentration −5.0 Molar) was 26% and the “Mean Optical Densities” value (OVCAR-5; Log10 Concentration −6.0 Molar) was 0.862. The “Percent Growth” value (OVCAR-5; Log10 Concentration −6.0 Molar) was 68%, the “Mean Optical Densities” value (OVCAR-5; Log10 Concentration −7.0 Molar) was 0.853 and the “Percent Growth” value (OVCAR-5; Log10 Concentration −7.0 Molar) was 65%. The “Mean Optical Densities” value (OVCAR-5; Log10 Concentration −8.0 Molar) was 0.696, the “Percent Growth” value (OVCAR-5; Log10 Concentration −8.0 Molar) was 4% and the TGI (SW-620) was over 1.00E−4 Molar. For the same compound, the GI50 (SW-620; Homo sapiens) was 6.51 µM, the CC50 (SW-620; [1]) was over 100 µM and the “Mean Optical Densities” value (SW-620; Log10 Concentration −4.0 Molar) was 0.396. For the same compound, the “Percent Growth” value (SW-620; Log10 Concentration −4.0 Molar) was 25%, the “Mean Optical Densities” value (SW-620; Log10 Concentration −5.0 Molar) was 0.544 and the “Percent Growth” value (SW-620; Log10 Concentration −5.0 Molar) was 42%. The “Mean Optical Densities” value (SW-620; Log10 Concentration −6.0 Molar) was 0.949, the “Percent Growth” value (SW-620; Log10 Concentration −6.0 Molar) was 87% and the “Mean Optical Densities” value (SW-620; Log10 Concentration −7.0 Molar) was 1.012. For the same compound, the “Percent Growth” value (SW-620; Log10 Concentration −7.0 Molar) was 94%, the “Mean Optical Densities” value (SW-620; Log10 Concentration −8.0 Molar) was 0.955 and the “Percent Growth” value (SW-620; Log10 Concentration −8.0 Molar) was 88%. It also gave a TGI (NCI-H522) of over 1.00E−4 Molar, a GI50 (NCI-H522; Homo sapiens) of 3.38 µM and a CC50 (NCI-H522; [1]) of over 100 µM. For the same compound, the “Mean Optical Densities” value (NCI-H522; Log10 Concentration −4.0 Molar) was 0.760, the “Percent Growth” value (NCI-H522; Log10 Concentration −4.0 Molar) was 9% and the “Mean Optical Densities” value (NCI-H522; Log10 Concentration −5.0 Molar) was 0.919. For the same compound, the “Percent Growth” value (NCI-H522; Log10 Concentration −5.0 Molar) was 35%, the “Mean Optical Densities” value (NCI-H522; Log10 Concentration −6.0 Molar) was 1.119 and the “Percent Growth” value (NCI-H522; Log10 Concentration −6.0 Molar) was 67%. The “Mean Optical Densities” value (NCI-H522; Log10 Concentration −7.0 Molar) was 1.099, the “Percent Growth” value (NCI-H522; Log10 Concentration −7.0 Molar) was 64% and the “Mean Optical Densities” value (NCI-H522; Log10 Concentration −8.0 Molar) was 1.087. For the same compound, the “Percent Growth” value (NCI-H522; Log10 Concentration −8.0 Molar) was 62%.
